Reference: patent US12012410B2, “Substituted pyrazolo[1,5-a]pyrazines for spinal muscular atrophy” (REBORNA BIOSCIENCES, INC., priority 2018, dated 2024)

test system: FL-SMN mRNA (SMN transcript containing exons 7 and 8); test: Live-cell assay to measure changes in FL-SMN mRNA levels (qPCR) after exposure to the compounds; format: cell-based, human; details: fibroblasts derived from patients SMA (GM03813); 24 hours incubation
Procedure, shortened: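 SMA patient fibroblasts (GM03813) in DMEM/10% FBS were treated with compound (0.1% DMSO final) for 24 h. FL-SMN and Δ7 mRNA were measured by RT-qPCR against oligo DNA standard curves and normalised to GAPDH. Values are % of the DMSO control, binned by asterisk from ≥100% to ≥180%.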

Compound	Percentage of increase (FL-SMN mRNA standardized against GAPDH, DMSO control set as 100%)
Cc1cn2cc(-c3ccc4nc(C5CCN(C)CC5)[nH]c(=O)c4c3)cc2cn1 [Example 15, 2-(1-Methylpiperidin-4-yl)-6-(3-methylpyrrolo[1,2-α]pyrazin-7-yl)quinazolin-4(3H)-one]	**** (equal to or higher than 180%)
Cc1cn2nc(-c3nc4ccc(N5CCN(CC6CC6)CC5)cc4c(=O)[nH]3)cc2c(C)n1 [Example 120, 6-[4-(cyclopropyImethyl)piperazin-1-yl]-2-(4,6-dimethylpyrazolo[1,5-a]pyrazin-2-yl)quinazolin-4(3H)-one bistrifluoroacetate]	**** (equal to or higher than 180%)
Cc1cn2nc(-c3nc4ccc(N5CCN(C(C)C)CC5)cc4c(=O)[nH]3)cc2c(C)n1 [Example 119, 2-(4,6-dimethylpyrazolo[1,5-a]pyrazin-2-yl)-6-(4-isopropylpiperazin-1-yl)quinazolin-4(3H)-one bistrifluoroacetate]	**** (equal to or higher than 180%)
Cc1cn2cc(-c3cc4c(=O)[nH]c(C5CCN(C)CC5)nc4cc3C)ccc2n1 [Example 62, 7-methyl-6-(2-methylimidazo[1,2-a]pyridin-6-yl)-2-(1-methylpiperidin-4-yl)quinazolin-4(3H)-one]	* (equal to or higher than 100% but lower than 120%)
CCN1CCC(c2nc3ccc(-c4cc(F)c5nc(C)oc5c4)cc3c(=O)[nH]2)CC1 [Example 25, 2-(1-ethylpiperidin-4-yl)-6-(4-fluoro-2-methylu 1,3-benzoxazole-6-yl) kinazoline-4 (3H)-one]	**** (equal to or higher than 180%)
COc1cccc(-c2nc3ccc(C4CCN(C)CC4)cc3c(=O)[nH]2)c1F [Example 47, 2-(2-fluoro-3-methoxyphenyl)-6-(1-methylpiperidin-4-yl)quinazolin-4(3H)-one]	* (equal to or higher than 100% but lower than 120%)
Cc1ccc(-c2nc3ccc(C4CCN(C)CC4)cc3c(=O)[nH]2)c(=O)n1C [Example 44, 2-(1,6-dimethyl-2-oxo-1,2-dihydropyridin-3-yl)-6-(1-methylpiperidin-4-yl)quinazolin-4(3H)-one]	** (equal to or higher than 120% but lower than 150%)
Cc1cn2cc(-c3nc4ccc(N5CCN(C)CC5)cc4c(=O)[nH]3)ccc2n1 [Example 58, 2-(2-methylimidazo[1,2-a]pyridin-6-yl)-6-(4-methylpiperazin-1-yl)quinazolin-4(3H)-one]	** (equal to or higher than 120% but lower than 150%)
